According to patent publication US20070010551A1, “Quinoline derivatives as neutrophil elastase inhibitors and their use” (priority 2003, published 2007):

Biological target: T1, Human Neutrophil Elastase (HNE) (Homo sapiens, UniProt P08246)
T1 construct: Human Neutrophil Elastase (HNE) purified from serum; purchased Calbiochem 324681; host or cells: natural human material (serum)
T1 sequence (P08246 30-247 limits assumed): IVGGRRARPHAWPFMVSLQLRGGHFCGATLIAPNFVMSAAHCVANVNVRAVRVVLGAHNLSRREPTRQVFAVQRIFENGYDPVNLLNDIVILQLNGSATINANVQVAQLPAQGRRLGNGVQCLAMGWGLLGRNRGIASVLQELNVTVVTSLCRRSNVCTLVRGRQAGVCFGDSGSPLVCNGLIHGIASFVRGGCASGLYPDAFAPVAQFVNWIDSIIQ
Assay: Human Neutrophil Elastase Quenched-FRET Assay
Type: biochemical
Settings: HNE purified from serum; substrate MeOSuc-AAPV-AMC; 15 min preincubation, 30 min incubation at room temperature; read-out: Inhibition of Human Neutrophil Elastase IC50
Experimental: Human Neutrophil Elastase Quenched-FRET Assay
The assay uses Human Neutrophil Elastase (HNE) purified from serum (Calbiochem art. 324681; Ref. Baugh, R. J. et al., 1976, Biochemistry. 15, 836-841). HNE was stored in 50 mM NaOAc, 200 mM NaCl, pH 5.5 with added 30% glycerol at −20° C. The protease substrate used was Elastase Substrate V Fluorogenic, MeOSuc-AAPV-AMC (Calbiochem art. 324740; Ref. Castillo, M. J. et al., 1979, Anal. Biochem. 99, 53-64). The substrate was stored in DMSO at −20° C. The assay additions were as follows: Test compounds and controls were added to black 96-well flat-bottom plates (Greiner 655076), 1 μL in 100% DMSO, followed by 30 μL HNE in assay buffer with 0.01% TritonX-100. The assay buffer constitution was: 100 mM Tris (pH 7.5) and 500 mM NaCl. The enzyme and the compounds were incubated at room temperature for 15 minutes. Then 30 μl substrate in assay buffer was added. The assay was stopped after 30 minutes incubation at room temperature by adding 60 μl stop solution (140 mM acetic acid, 200 mM sodium monochloroacetate, 60 mM sodium acetate, pH 4.3). Fluorescence was measured on a Wallac 1420 Victor 2 instrument at settings: Excitation 380 nm, Emission 460 nm. IC50 values were determined using Xlfit curve fitting using model 205.

Compound | IC50
O=C(NCc1ccc(F)c(F)c1)c1cc2ccccc2n(-c2cccc(C(F)(F)F)c2)c1=O [Example 2.26, N-(3,4-Difluorobenzyl)-2-oxo-1-[3-(trifluoromethyl)phenyl]-1,2-dihydroquinoline-3-carboxamide] | 500 nM
O=C(NCC1COc2ccccc2O1)c1cc2ccccc2n(-c2cccc(C(F)(F)F)c2)c1=O (stereo not drawn) [Example 2.51, N-(2,3-Dihydro-1,4-benzodioxin-2-ylmethyl)-2-oxo-1-[3-(trifluoromethyl)phenyl]-1,2-dihydroquinoline-3-carboxamide] | 390 nM
CC(=O)Nc1ccc(CNC(=O)c2cc3ccccc3n(-c3cccc(C(F)(F)F)c3)c2=O)cc1 [Example 2.66, N-[4-(Acetylamino)benzyl]-2-oxo-1-[3-(trifluoromethyl)phenyl]-1,2-dihydroquinoline-3-carboxamide] | 320 nM
